Laboratory results published in ChEMBL document CHEMBL4118077, “Synthesis of thiazole linked indolyl-3-glyoxylamide derivatives as tubulin polymerization inhibitors” (Eur J Med Chem, 2017).
pIC50: −log10 of the molar value. Active and inactive are the calls of the source. The rule behind the calls is not given here.

Columns and labels:
DU-145 [1] = assay: Antimigratory activity against human DU145 cells assessed as inhibition of migration to scratch area at 100 nM after 24 hrs by phase contrast microscopic method relative to control; format: functional; settings: DU-145, 24 h
DU-145 [2] = assay: Cell cycle arrest in human DU145 cells assessed as accumulation at subG1 phase at 100 nM after 24 hrs by propidium iodide staining based flow cytometry (reference value: 0.43%); format: functional
DU-145 [3] = assay: Cell cycle arrest in human DU145 cells assessed as accumulation at subG1 phase at 200 nM after 24 hrs by propidium iodide staining based flow cytometry (reference value: 0.43%); format: functional
DU-145 [4] = assay: Induction of morphological changes in human DU145 cells assessed as cell shrinkage after 48 hrs by acridine orange/ethidium bromide staining based fluorescence microscopic method; format: functional
DU-145 [5] = assay: Antiproliferative activity against human DU145 cells after 48 hrs by MTT assay; format: functional, cell-based; settings: DU-145, 48 h
PC-3 = assay: Antiproliferative activity against human PC3 cells after 48 hrs by MTT assay; format: functional, cell-based; settings: PC-3, 48 h
A549 = assay: Antiproliferative activity against human A549 cells after 48 hrs by MTT assay; format: functional, cell-based; settings: A549, 48 h
HCT-15 = assay: Antiproliferative activity against human HCT15 cells after 48 hrs by MTT assay; format: functional, cell-based; settings: HCT-15, 48 h
RWPE-1 = assay: Cytotoxicity against human RWPE1 cells assessed as reduction in cell viability after 48 hrs by MTT assay; format: cell-based; settings: RWPE-1, 48 h
Sus scrofa = organism: Sus scrofa; assay: Inhibition of porcine brain tubulin polymerization at 5 uM measured for 1 hr by fluorescence assay relative to control
DU-145 [6] = assay: Antimigratory activity against human DU145 cells assessed as inhibition of migration to scratch area at 200 nM after 24 hrs by phase contrast microscopic method relative to control; format: functional; settings: DU-145, 24 h
DU-145 [7] = assay: Antimigratory activity against human DU145 cells assessed as inhibition of migration to scratch area at 400 nM after 24 hrs by phase contrast microscopic method relative to control; format: functional; settings: DU-145, 24 h
DU-145 [8] = assay: Antimigratory activity against human DU145 cells assessed as inhibition of migration to scratch area after 24 hrs by phase contrast microscopic method; format: functional, cell-based
DU-145 [9] = assay: Induction of morphological changes in human DU145 cells assessed as membrane blebbing after 48 hrs by acridine orange/ethidium bromide staining based fluorescence microscopic method; format: functional, cell-based
DU-145 [10] = assay: Induction of morphological changes in human DU145 cells assessed as apoptotic body formation after 48 hrs by acridine orange/ethidium bromide staining based fluorescence microscopic method; format: functional, cell-based
DU-145 [11] = assay: Induction of morphological changes in human DU145 cells assessed as nuclear fragmentation at 100 to 200 nM after 48 hrs by DAPI staining based fluorescence microscopic method; format: functional, cell-based
DU-145 [12] = assay: Induction of morphological changes in human DU145 cells assessed as nuclear condensation at 100 to 200 nM after 48 hrs by DAPI staining based fluorescence microscopic method; format: functional, cell-based
DU-145 [13] = assay: Cell cycle arrest in human DU145 cells assessed as accumulation at G0/G1 phase at 100 nM after 24 hrs by propidium iodide staining based flow cytometry (reference value: 63.77%); format: functional
DU-145 [14] = assay: Cell cycle arrest in human DU145 cells assessed as accumulation at S phase at 100 nM after 24 hrs by propidium iodide staining based flow cytometry (reference value: 14.8%); format: functional
DU-145 [15] = assay: Cell cycle arrest in human DU145 cells assessed as accumulation at G2/M phase at 100 nM after 24 hrs by propidium iodide staining based flow cytometry (reference value: 25.88%); format: functional
DU-145 [16] = assay: Cell cycle arrest in human DU145 cells assessed as accumulation at G0/G1 phase at 200 nM after 24 hrs by propidium iodide staining based flow cytometry (reference value: 63.77%); format: functional
DU-145 [17] = assay: Cell cycle arrest in human DU145 cells assessed as accumulation at S phase at 200 nM after 24 hrs by propidium iodide staining based flow cytometry (reference value: 14.8%); format: functional
DU-145 [18] = assay: Cell cycle arrest in human DU145 cells assessed as accumulation at G2/M phase at 200 nM after 24 hrs by propidium iodide staining based flow cytometry (reference value: 25.88%); format: functional
DU-145 [19] = assay: Cell cycle arrest in human DU145 cells assessed as accumulation at subG1 phase at 400 nM after 24 hrs by propidium iodide staining based flow cytometry (reference value: 0.43%); format: functional
DU-145 [20] = assay: Cell cycle arrest in human DU145 cells assessed as accumulation at G0/G1 phase at 400 nM after 24 hrs by propidium iodide staining based flow cytometry (reference value: 63.77%); format: functional
DU-145 [21] = assay: Cell cycle arrest in human DU145 cells assessed as accumulation at S phase at 400 nM after 24 hrs by propidium iodide staining based flow cytometry (reference value: 14.8%); format: functional
DU-145 [22] = assay: Cell cycle arrest in human DU145 cells assessed as accumulation at G2/M phase at 400 nM after 24 hrs by propidium iodide staining based flow cytometry (reference value: 25.88%); format: functional
DU-145 [23] = assay: Cell cycle arrest in human DU145 cells assessed as accumulation at G2/M phase after 24 hrs by propidium iodide staining based flow cytometry; format: functional
DU-145 [24] = assay: Induction of apoptosis in human DU145 cells after 24 hrs by Annexin V-FITC/propidium iodide staining based flow cytometry; format: functional, cell-based
DU-145 [25] = assay: Induction of apoptosis in human DU145 cells assessed as live cells at 200 nM after 24 hrs by Annexin V-FITC/propidium iodide staining based flow cytometry (reference value: 85.71%); format: functional
DU-145 [26] = assay: Induction of apoptosis in human DU145 cells assessed as early apoptotic cells at 200 nM after 24 hrs by Annexin V-FITC/propidium iodide staining based flow cytometry (reference value: 5.92%); format: functional
DU-145 [27] = assay: Induction of apoptosis in human DU145 cells assessed as late apoptotic cells at 200 nM after 24 hrs by Annexin V-FITC/propidium iodide staining based flow cytometry (reference value: 6.55%); format: functional
DU-145 [28] = assay: Induction of apoptosis in human DU145 cells assessed as necrotic cells at 200 nM after 24 hrs by Annexin V-FITC/propidium iodide staining based flow cytometry (reference value: 1.82%); format: functional
DU-145 [29] = assay: Induction of apoptosis in human DU145 cells assessed as live cells at 400 nM after 24 hrs by Annexin V-FITC/propidium iodide staining based flow cytometry (reference value: 85.71%); format: functional
DU-145 [30] = assay: Induction of apoptosis in human DU145 cells assessed as early apoptotic cells at 400 nM after 24 hrs by Annexin V-FITC/propidium iodide staining based flow cytometry (reference value: 5.92%); format: functional
DU-145 [31] = assay: Induction of apoptosis in human DU145 cells assessed as late apoptotic cells at 400 nM after 24 hrs by Annexin V-FITC/propidium iodide staining based flow cytometry (reference value: 6.55%); format: functional
DU-145 [32] = assay: Induction of apoptosis in human DU145 cells assessed as necrotic cells at 400 nM after 24 hrs by Annexin V-FITC/propidium iodide staining based flow cytometry (reference value: 1.82%); format: functional
DU-145 [33] = assay: Induction of mitochondrial membrane potential loss in human DU145 cells assessed as depolarized cell population at 200 nM after 24 hrs by JC-1 staining based flow cytometry (reference value: 22.28%); format: functional
DU-145 [34] = assay: Induction of mitochondrial membrane potential loss in human DU145 cells assessed as intact membrane cell population at 200 nM after 24 hrs by JC-1 staining based flow cytometry (reference value: 77.24%); format: functional
DU-145 [35] = assay: Induction of mitochondrial membrane potential loss in human DU145 cells assessed as depolarized cell population at 400 nM after 24 hrs by JC-1 staining based flow cytometry (reference value: 22.28%); format: functional
DU-145 [36] = assay: Induction of mitochondrial membrane potential loss in human DU145 cells assessed as intact membrane cell population at 400 nM after 24 hrs by JC-1 staining based flow cytometry (reference value: 77.24%); format: functional
DU-145 [37] = assay: Induction of mitochondrial membrane potential loss in human DU145 cells after 24 hrs by JC-1 staining based flow cytometry; format: functional, cell-based
DU-145 [38] = assay: Induction of intracellular mitochondrial superoxide generation in human DU145 cells after 48 hrs by MitoSOX staining based fluorescence microscopic method; format: functional, cell-based

Q: For `COc1ccc2sc(NC(=O)Cn3cc(C(=O)C(=O)Nc4ccccc4)c4ccccc43)nc2c1`, which inhibition at 0.1 µM (DU-145 [1]) is on record?
A: The inhibition at 0.1 µM was 74.8%.

Q: What about the Activity (DU-145 [2]) of the same compound?
A: The Activity was 17.37%.

Q: What about the Activity (DU-145 [3]) of the same compound?
A: The Activity was 5.88%.

Q: And the Activity (DU-145 [4])?
A: Its Activity is “Dose-dependent effect”.

Q: What about the pIC50 (DU-145 [5]) of the same compound?
A: Its pIC50 is 7.03.

Q: And the pIC50 (PC-3)?
A: The pIC50 was 6.44.

Q: And the pIC50 (A549)?
A: The pIC50 was 5.68.

Q: What about the pIC50 (HCT-15) of the same compound?
A: Its pIC50 is 6.74.

Q: And the pIC50 (RWPE-1)?
A: Its pIC50 is 6.15.

Q: What about the inhibition (Sus scrofa) of the same compound?
A: The inhibition was 68.5%.

Q: And the inhibition at 0.2 µM (DU-145 [6])?
A: The inhibition at 0.2 µM was 44%.

Q: And the inhibition at 0.4 µM (DU-145 [7])?
A: The inhibition at 0.4 µM was 34.8%.

Q: What about the inhibition (DU-145 [8]) of the same compound?
A: Its inhibition is “Dose-dependent effect”.

Q: And the Activity (DU-145 [9])?
A: The Activity was “Dose-dependent effect”.

Q: And the Activity (DU-145 [10])?
A: The Activity was “Dose-dependent effect”.

Q: What about the Activity (DU-145 [11]) of the same compound?
A: Its Activity is “Active”.

Q: What about the Activity (DU-145 [12]) of the same compound?
A: Its Activity is “Active”.

Q: And the Activity (DU-145 [13])?
A: The Activity was 47.69%.

Q: What about the Activity (DU-145 [14]) of the same compound?
A: Its Activity is 5.8%.

Q: What about the Activity (DU-145 [15]) of the same compound?
A: The Activity was 30.15%.

Q: And the Activity (DU-145 [16])?
A: Its Activity is 51.89%.

Q: And the Activity (DU-145 [17])?
A: The Activity was 8.26%.

Q: What about the Activity (DU-145 [18]) of the same compound?
A: Its Activity is 34.07%.

Q: And the Activity (DU-145 [19])?
A: Its Activity is 26.89%.

Q: What about the Activity (DU-145 [20]) of the same compound?
A: The Activity was 16.32%.

Q: And the Activity (DU-145 [21])?
A: The Activity was 5.51%.

Q: What about the Activity (DU-145 [22]) of the same compound?
A: Its Activity is 50.9%.

Q: And the Activity (DU-145 [23])?
A: Its Activity is “Dose-dependent effect”.

Q: What about the Activity (DU-145 [24]) of the same compound?
A: The Activity was “Dose-dependent effect”.

Q: And the Activity (DU-145 [25])?
A: The Activity was 84.72%.

Q: What about the Activity (DU-145 [26]) of the same compound?
A: Its Activity is 5.89%.

Q: What about the Activity (DU-145 [27]) of the same compound?
A: Its Activity is 5.81%.

Q: What about the Activity (DU-145 [28]) of the same compound?
A: The Activity was 3.58%.

Q: And the Activity (DU-145 [29])?
A: The Activity was 45.47%.

Q: And the Activity (DU-145 [30])?
A: Its Activity is 16.84%.

Q: What about the Activity (DU-145 [31]) of the same compound?
A: The Activity was 33.63%.

Q: What about the Activity (DU-145 [32]) of the same compound?
A: Its Activity is 4.06%.

Q: And the Activity (DU-145 [33])?
A: The Activity was 57.05%.

Q: And the Activity (DU-145 [34])?
A: Its Activity is 42.39%.

Q: What about the Activity (DU-145 [35]) of the same compound?
A: Its Activity is 64.65%.

Q: What about the Activity (DU-145 [36]) of the same compound?
A: Its Activity is 34.21%.

Q: What about the Activity (DU-145 [37]) of the same compound?
A: The Activity was “Dose-dependent effect”.

Q: What about the Activity (DU-145 [38]) of the same compound?
A: Its Activity is “Dose-dependent effect”.
